Experimental data as given in patent US4091006A, “Esters of 3-hydroxyindone compounds” (priority 1975, dated 1978).

Legend:
[1] = tested on: adults and nymphal stages of the two-spotted mite; experiment: Mite Foliage Spray Test; format: in vivo, Tetranychus urticae (Koch); parameters: key: 1: no mortality; 3: an approximately 50% mortality; 5: 100% mortality; conditions: 4 days
Excerpt: (§1) The test procedures were as follows:
(§2) Compositions were rated on the basis of percent kill with a rating of 1 indicating no mortality; 3 signifying an approximately 50% mortality and 5 indicating 100% mortality at the indicated dosage.

[2] = tested on: egg of the two-spotted mite; experiment: Mite Ovicide Test; format: in vivo, Tetranychus urticae (Koch); parameters: key to Mite Ova rating: 1: no mortality; 3: an approximately 50% mortality; 5: 100% mortality; conditions: spray on eggs, 4 days
Excerpt: as §1
The plants were allowed to dry thoroughly.
as §2

[3] = tested on: Perennial rye grass, crabgrass, red root pigweed, mustard; experiment: Preliminary Herbicide Seed Germination Test; conditions: each rated 1 (no injury) to 5 (no seedlings emerged)
Excerpt: The thus-prepared stock suspension contained 0.5 percent by weight of compound. The test concentrations employed in the tests described hereinbelow were obtained by diluting the stock suspension with water. The test procedures were as follows:
The following seeds were used in this test:
Crabgrass -- Digitaria san-
Mustard -- Brassica pincea var.
Each of above mixtures is rolled separately in 5 gallon containers for approximately one-half hour on ball mill to insure uniform mixing of seeds and soil. For each compound four 3-inch pots are filled with soil to within 11/2 inches of top of pots. To 2 of these pots are added 70 cc. of Mixture I. To the remaining 2 pots are added 70 cc. of Mixture II. The seed-soil mixture is tamped firmly, and the pots are removed to the greenhouse and watered lightly. About 2 hours after planting, 25 milliliters of the test formulation were added to each of 2 pots for each soil-seed mixture; i.e., one replicate of each seed mixture per concentration. An equal volume of a water solution containing acetone and an emulsifier in the same concentration as the herbicidal mixture but without the candidate herbicide is also added to each of the soil-seed mixtures. These pots are used as check or control units. The test compounds are formulated by standard procedure of solution in acetone, addition of an emulsifier, and dilution with water. Tests were conducted on all compositions at low concentration (100 ppm.). Certain compositions were also tested at high concentration (1000 ppm). The pots were held in the greenhouse and watered lightly until results were taken. Ten to twelve days after application of chemical, injury is noted for each species by comparing treated vs. untreated pots. Ratings are made at both the high and the low concentrations (1000 ppm and 100 ppm) according to the following designations:
4 = few seedlings emerged and/or very severe stunting
3 = moderate reduction in stand and/or moderate stunting
2 = very slight reduction in stand and/or slight stunting
1 = no injury; seedlings appear no different with respect to stand or growth than untreated controls
Accordingly, the maximum rating for one test seed species tested at both high and low concentration is 10 and the maximum possible total preemergence rating is 40 (10 for each of the four test seed species). […] In some tests the crabgrass experiment was omitted. In these tests the maximum total rating for species tested at both high and low concentrations is 30 and 15 for species tested only at low concentrations.

[4] = rating/maximum 20: 100 ppm only, four species
[5] = rating/maximum 40: 100 and 1000 ppm, four species, 10-12 days
[6] = rating/maximum 30: 100 and 1000 ppm, crabgrass omitted
[7] = rating/maximum 15: 100 ppm only, crabgrass omitted

SMILES	Mite Adult rating [1]	Mite Ova rating [2]	Herbicide (total preemergence rating) [3, 4]	Herbicide (total preemergence rating) [3, 5]	Herbicide (total preemergence rating) [3, 6]	Herbicide (total preemergence rating) [3, 7]
CCc1ccccc1C1=C(OC(=O)C(C)(C)C)c2ccccc2C1=O [2-(2'-Ethylphenyl)-3-pivaloyloxyindone]	1	1	4/20			
Cc1cccc(C)c1C1=C(OC(=O)C(C)(C)C)c2ccccc2C1=O [2-(2',6'-Dimethylphenyl)-3-(pivaloyloxy)indone]	5 (100% mortality)	5 (100% mortality)		31/40		
Cc1cc(C)c(C2=C(OC(=O)N3CCOCC3)c3ccccc3C2=O)c(C)c1 [2-(2',4',6'-Trimethylphenyl)-3-(4-(morpholino)carbonyloxy)indone]	3 (an approximately 50% mortality)	5 (100% mortality)	4/20			
CC(C)c1ccccc1C1=C(OC(=O)C(C)(C)C)c2ccccc2C1=O [2-(2'-isopropylphenyl)-3-pivaloyloxyindone]	1		4/20			
O=C(OC1=C(c2c(Cl)cccc2Cl)C(=O)c2ccccc21)c1ccc([N+](=O)[O-])cc1 [3-(4-Nitrobenzoyloxy)-2-(2',6'-dichlorophenyl)indone]	5 (100% mortality)	5 (100% mortality)			25/30	
CCCCCCCCCCCC(=O)OC1=C(c2ccc(C)cc2C)C(=O)c2ccccc21 [2-(2',4'-Dimethylphenyl)-3-(lauroyloxy)indone]	5 (100% mortality)	5 (100% mortality)	14/20			
CNC(=O)N(C)C(=O)OC1=C(c2c(C)cc(C)cc2C)C(=O)c2ccccc21 [2-(2',4',6'-Trimethylphenyl)-3-(2,4-dimethylallophanoyloxy)indone]	1	5 (100% mortality)	16/20			
CCCC(=O)OC1=C(c2c(C)cc(C)cc2C)C(=O)c2ccccc21 [2-(2',4',6'-Trimethylphenyl)-3-(butyryloxy)indone]	5 (100% mortality)	5 (100% mortality)				15/15
Cc1cc(C)c(C2=C(OC(=O)c3ccc(Cl)cc3)c3ccccc3C2=O)c(C)c1 [3-(4-Chlorobenzoyloxy)-2-(2',4',6'-trimethylphenyl)indone]	5 (100% mortality)	5 (100% mortality)			24/30	
CCCCCCCCCCCCCCCCCC(=O)OC1=C(c2ccccc2Cl)C(=O)c2ccccc21 [2-(2'-Chlorophenyl)-3-(stearoyloxy)indone]	1	5 (100% mortality)	4/20			
Cc1cc(C)c(C2=C(OC(=O)N3CCCCC3)c3ccccc3C2=O)c(C)c1 [2-(2',4',6'-Trimethylphenyl)-3-(piperdinocarbonyloxy)indone]	1	3 (an approximately 50% mortality)	4/20			
CCCCC(CC)C(=O)OC1=C(c2ccccc2OC)C(=O)c2ccccc21 (centres unmarked) [3-(2-Ethylhexanoyloxy)-2-(2'-methoxyphenyl-indone]	1	1	4/20			
O=C(OC1=C(c2c(Cl)cccc2Cl)C(=O)c2ccccc21)c1cccc([N+](=O)[O-])c1 [3-(3-Nitrobenzoyloxy)-2-(2',6'-dichlorophenyl)indone]	5 (100% mortality)	5 (100% mortality)			26/30	
Cc1cc(C)c(C2=C(OC(=O)c3ccc(Cl)cc3Cl)c3ccccc3C2=O)c(C)c1 [3-(2,4-Dichlorobenzoyloxy)-2-(2',4',6'-trimethylphenyl)indone]	5 (100% mortality)	5 (100% mortality)		32/40		
Cc1cc(C)c(C2=C(OC(=O)NC(C)(C)C)c3ccccc3C2=O)c(C)c1 [2-(2',4',6'-Trimethylphenyl)-3-(N-(t-butyl)carbamoyloxy)indone]	5 (100% mortality)	5 (100% mortality)	15/20			
Cc1cc(C)c(C2=C(OC(=O)COc3ccc(Cl)cc3Cl)c3ccccc3C2=O)c(C)c1 [2-(2',4',6'-Trimethylphenyl)-3-(2,4-dichlorophenoxyacetoxy)indone]	5 (100% mortality)	5 (100% mortality)	20/20			
CCCCCCCCCCCCCCCCCC(=O)OC1=C(c2ccccc2)C(=O)c2ccccc21 [2-Phenyl-3-(stearoyloxy)indone]	1	1	4/20			
Cc1cccc(C(=O)OC2=C(c3c(C)cc(C)cc3C)C(=O)c3ccccc32)c1 [3-(3-Methylbenzoyloxy)-2-(2',4',6'-trimethylphenyl)indone]	5 (100% mortality)	5 (100% mortality)		26/40		
CCCC(C)C(=O)OC1=C(c2ccc(C)cc2C)C(=O)c2ccccc21 (centres unmarked) [2-(2',4'-Dimethylphenyl)-3-(2-methylpentanoyloxy)indone]	3 (an approximately 50% mortality)	5 (100% mortality)	14/20			
COc1ccccc1C1=C(OC(=O)C(C)(C)C)c2ccccc2C1=O [2-(2'-Methoxyphenyl)-3-(pivaloyloxy)indone]	1	1		8/40		
Cc1cc(C)c(C(=O)OC2=C(c3c(Cl)cccc3Cl)C(=O)c3ccccc32)c(C)c1 [3-(2,4,6-Trimethylbenzoyloxy)-2-(2',6'-dichlorophenyl)indone]	1	1				6/15
Cc1cc(C)c(C2=C(OC(=O)c3c(C)cccc3C)c3ccccc3C2=O)c(C)c1 [3-(2,6-Dimethylbenzoyloxy)-2-(2',4',6'-trimethylphenyl)indone]	1	1	4/20			
CCC(CC)C(=O)OC1=C(c2cc(C)ccc2C)C(=O)c2ccccc21 [2-(2',5'-Dimethylphenyl)-3-(2-ethylbutanoyloxy)indone]	3 (an approximately 50% mortality)	5 (100% mortality)	4/20			
Cc1cc(C(C)(C)C)cc(C)c1C1=C(OC(=O)C(C)(C)C)c2ccccc2C1=O [2-(2',6'-Dimethyl-4'-t-butylphenyl)-3-(pivaloyloxy)indone]	1	1		9/40		
Cc1cc(C)c(C2=C(OC(=O)c3cccs3)c3ccccc3C2=O)c(C)c1 [2-(2',4',6'-Trimethylphenyl)-3-(2-thenoyloxy)indone]	5 (100% mortality)	5 (100% mortality)	18/20			
Cc1ccc(C(=O)OC2=C(c3c(C)cc(C)cc3C)C(=O)c3ccccc32)cc1 [3-(4-Methylbenzoyloxy)-2-(2',4',6'-trimethylphenyl)indone]	5 (100% mortality)	5 (100% mortality)			22/30	
Cc1cc(C)c(C2=C(OC(=O)Oc3ccc(Cl)cc3)c3ccccc3C2=O)c(C)c1 [2-(2',4',6'-Trimethylphenyl)-3-(4-chlorophenyloxycarbonyloxy)indone]	5 (100% mortality)	5 (100% mortality)	19/20			
CCCCCCCCCCCCCCCCCCOC(=O)OC1=C(c2c(C)cc(C)cc2C)C(=O)c2ccccc21 [2-(2',4',6'-Trimethylphenyl)-3-(octadecyloxycarbonyloxy)indone]	5 (100% mortality)	5 (100% mortality)				13/15
CCCCC(CC)C(=O)OC1=C(c2ccccc2F)C(=O)c2ccccc21 (centres unmarked) [3-(2-Ethylhexanoyloxy)-2-(2'-fluorophenyl)indone]	3 (an approximately 50% mortality)	5 (100% mortality)	4/20			
